Results as given in patent US8815933B2 (EnVivo Pharmaceuticals, Inc., priority 2008, dated 2014).

Experiments:
[1] = maximum plasma concentration in human SAD/MAD clinical trials; type: in vivo; conditions: for Cmax: plasma, oral
Description: Multiple ascending dose (MAD) human clinical trials were conducted.
These values are 35-2000 times lower than would have anticipated if efficacy was to be achieved when the free plasma concentration reached the Ki or the ECref concentrations. […] These values are 9.4-667 times lower than expected.

[2] = test system: patients suffering from schizophrenia; test: MMN and P300 evoked responses (oddball sequence) in schizophrenia patients; type: in vivo, Human
Description: The test described above was used to study the effect of the test compound on cognition in patients suffering from schizophrenia. Prior to testing, the patients were dosed with: 1 mg of the test compound daily, 0.3 mg of the test compound daily or were administered a placebo for 20 days. Subjects were tested as described below.
The MMN and P300 components were elicited during the so-called oddball sequence. The stimulus sequence was a series of lower (500 Hz) and higher (1000 Hz) pitched pure tones presented at a rate of 1 tone per 0.6 sec. The tones were 50 msec in duration, 50 dB above hearing level, and randomly interspersed. The higher pitched tone was the oddball event. Across the series of 600 tones, it occurred at a probability of 0.2. The other tone occurred at the complementary probability of 0.8. Patients were instructed to ignore the tones and instead attend to a magazine held in the lap.
During the task, EEG and EOG activity were digitized at a rate of 500 Hz per channel for 50 msec preceding and 500 msec following stimulus onset. Trials contaminated by eyeblinks or eye movements were removed. An off-line program digitally filtered (bandpass=0.1-30 Hz, 12 db roll-off) responses to the rare and frequent events and constructed averaged event related responses for each electrode. At the FCz electrode, the MMN was measured by an automated algorithm that computed the summed amplitude, relative to the prestimulus baseline, over a 100-200 msec time window following the onsets of the rare (oddball) and frequent tones. MMN was then recalculated as the voltage difference between these responses. P300 amplitude was measured at the Pz electrode site as the peak amplitude between 250 and 500 msec following stimulus onset.
MMN and P300 amplitude reflect activation of multiple precortical and cortical pathways sensitive to stimulus novelty, short term memory, and attention. MMN was calculated as the voltage difference over 100-200 msec post-stimulus onset between the responses to the rare and frequent stimuli. […] P300 is not entirely independent of MMN. P300 was calculated as the peak amplitude relative to the average voltage of the waveform during the 50 msec prestimulus period. A more positive P300 response is indicative of improved cognitive function. P300 is maximal in amplitude when the eliciting stimulus is both rare and task relevant (i.e., attended). In the present study, the rare stimulus was not task relevant. In fact, the patient was instructed to perform no task and to ignore the stimuli. In the present study, therefore, P300 amplitude is very small in comparison to amplitudes recorded under active task conditions. The present P300 component is more similar to the small, frontally-generated P300a described by Knight and colleagues than the large, parietally-generated P300b described in most studies of attentional dysfunction in schizophrenia.
In the analysis of P50 and N100 the baseline value was the covariate and all values obtained during the treatment period were averaged together. Data loss from unidentifiable MMN and P300 components was minimal. These analyses were conducted upon data obtained from n=4 patients treated with placebo, n=7 patients treated with 0.3 mg of the test compound, and n=8 patients treated with 1.0 mg of the test compound.

normal subjects = test: Digit Symbol Substitution Test (DSST) in SAD study; type: in vivo, Human; conditions: daily dose as low as 1 mg
Description: The impact of the test compound on cognition in normal subjects was assessed as described below. In these studies, subjects were treated with the test compound dissolved in cranberry juice.
The impact of the test compound on cognition in normal subjects was assessed in a SAD (Single Ascending Dose) study with the Digit Symbol Substitution Test (DSST). […] The positive effects of the test compound in the DSST indicate a beneficial effect on working memory and executive function.

Cl.O=C(N[C@H]1CN2CCC1CC2)c1cc2cccc(Cl)c2s1
maximum free plasma concentration ([1]; 0.3 mg dose, human): 0.073 to 0.283 nM | free plasma concentration ([1]; 1.0 mg doses, human): 0.237 to 1.06 nM | Cmax free ([1]; MAD1, Day 1, 1 mg): 0.252 nM | Cmax total ([1]; MAD1, Day 1, 1 mg): 1.96 nM | Cmax free ([1]; MAD1, Day 7, 1 mg): 0.853 nM | Cmax total ([1]; MAD1, Day 7, 1 mg): 6.61 nM | Cmax free ([1]; MAD1, Day 14, 1 mg): 1.06 nM | Cmax total ([1]; MAD1, Day 14, 1 mg): 8.23 nM | Cmax free ([1]; MAD2, Day 1, 0.1 mg): 0.022 nM | Cmax total ([1]; MAD2, Day 1, 0.1 mg): 0.172 nM | Cmax free ([1]; MAD2, Day 1, 1 mg): 0.251 nM | Cmax total ([1]; MAD2, Day 1, 1 mg): 1.943 nM | Cmax free ([1]; MAD2, Day 21, 0.1 mg): 0.093 nM | Cmax total ([1]; MAD2, Day 21, 0.1 mg): 0.724 nM | Cmax free ([1]; MAD2, Day 21, 1 mg): 0.974 nM | Cmax total ([1]; MAD2, Day 21, 1 mg): 7.547 nM | Cmax free ([1]; MAD3, Day 1, 0.3 mg): 0.073 nM | Cmax total ([1]; MAD3, Day 1, 0.3 mg): 0.568 nM | Cmax free ([1]; MAD3, Day 1, 1 mg): 0.221 nM | Cmax total ([1]; MAD3, Day 1, 1 mg): 1.71 nM | Cmax free ([1]; MAD3, Day 21, 0.3 mg): 0.283 nM | Cmax total ([1]; MAD3, Day 21, 0.3 mg): 2.195 nM | Cmax free ([1]; MAD3, Day 21, 1 mg): 0.800 nM | Cmax total ([1]; MAD3, Day 21, 1 mg): 6.20 nM | Cmax free ([1]; SAD, Day 1, 1 mg): 0.237 nM | Cmax total ([1]; SAD, Day 1, 1 mg): 1.84 nM | Cmax total ([1]; SAD, Day 1, 3.5 mg): 6.42 nM | Cmax ([1]; human, 0.1 mg, MAD2, Day 1, 0.1 mg): 0.055 ng/mL | Cmax ([1]; human, 0.1 mg, MAD2, Day 21, 0.1 mg): 0.232 ng/mL | Cmax ([1]; human, 0.3 mg, MAD3, Day 1, 0.3 mg): 0.182 ng/mL | Cmax ([1]; human, 0.3 mg, MAD3, Day 21, 0.3 mg): 0.704 ng/mL | Cmax ([1]; human, 1 mg, MAD1, Day 1, 1 mg): 0.63 ng/mL | Cmax ([1]; human, 1 mg, MAD1, Day 7, 1 mg): 2.12 ng/mL | Cmax ([1]; human, 1 mg, MAD1, Day 14, 1 mg): 2.64 ng/mL | Cmax ([1]; human, 1 mg, MAD2, Day 1, 1 mg): 0.623 ng/mL | Cmax ([1]; human, 1 mg, MAD2, Day 21, 1 mg): 2.42 ng/mL | Cmax ([1]; human, 1 mg, MAD3, Day 1, 1 mg): 0.547 ng/mL | Cmax ([1]; human, 1 mg, MAD3, Day 21, 1 mg): 1.99 ng/mL | Cmax ([1]; human, 1 mg, SAD, Day 1, 1 mg): 0.59 ng/mL | Cmax ([1]; human, 3.5 mg, SAD, Day 1, 3.5 mg): 2.06 ng/mL | MMN component vs placebo ([2]; 0.3 mg daily for 20 days): significantly (p<0.05) larger | P300 component vs placebo ([2]; 0.3 mg daily for 20 days): significantly (p<0.05) larger | MMN component vs placebo ([2]; 1.0 mg daily for 20 days): significantly (p<0.05) larger | P300 component vs placebo ([2]; 1.0 mg daily for 20 days): significantly (p<0.05) larger | MMN amplitude ([2]; 0.3 and 1.0 mg daily, dose-related, F=4.96, P=0.02, FIG. 3A): increased | P300 amplitude ([2]; 0.3 and 1.0 mg daily, dose-related, F=6.88, P=0.008, FIG. 3B): increased | cognition in Digit Symbol Substitution Test (normal subjects): pro-cognitive effects
